The text below walks through data of paper PMC11673721 (Biomolecules, 2024).

Assay [1] addresses T1, DtolTA (PLP-dependent transaminase of fold type IV) (Desulfobacula toluolica, UniProt K0NPP0, K91A).
T1 construct: gene dat; (His)6-tagged DtolTA variant
The assay is described as follows: half-reaction kinetics of variant apoenzyme in the presence of PLP; kmax/KD^app at pH […]. It counts as biochemical.

Assay [2] deals with T2, DtolTA (PLP-dependent transaminase of fold type IV) (Desulfobacula toluolica, UniProt K0NPP0).
T2 sequence (K0NPP0 1-286): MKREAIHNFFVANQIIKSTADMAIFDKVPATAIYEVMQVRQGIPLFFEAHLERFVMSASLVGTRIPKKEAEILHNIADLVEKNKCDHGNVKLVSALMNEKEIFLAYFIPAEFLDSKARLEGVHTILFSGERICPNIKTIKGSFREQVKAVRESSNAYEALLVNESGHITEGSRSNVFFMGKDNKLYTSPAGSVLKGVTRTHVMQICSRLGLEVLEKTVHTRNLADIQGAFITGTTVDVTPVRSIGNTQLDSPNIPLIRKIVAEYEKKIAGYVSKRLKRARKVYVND
The assay is described as follows: half-reaction (deamination) kinetics, absorbance at […] nm; kmax/KD^app at pH […]. The class given is biochemical. The arrangement: gene dat; (His)6-tagged DtolTA.

The target in assay [3] is T3, DtolTA (PLP-dependent transaminase of fold type IV) (Desulfobacula toluolica, UniProt K0NPP0, R144I).
T3 construct: gene dat; (His)6-tagged DtolTA variant
Kind of assay: half-reaction (deamination) kinetics, absorbance at […] nm; kmax/KD^app. The class given is biochemical.

Assay [4] concerns the target T3, DtolTA (PLP-dependent transaminase of fold type IV). Kind of assay: tyrosine fluorescence quenching titration of apoenzyme. The class given is binding. The source says: tyrosine fluorescence quenching titration of apoenzyme on DtolTA (PLP-dependent transaminase of fold type IV) | apparent dissociation constant Kd(PLP) for the R144I holoenzyme were similar to those of WT

For assay [5], the target named is T2, DtolTA (PLP-dependent transaminase of fold type IV). Kind of assay: crystal structure (9J0V […] Å; also 9J0U […] Å); tyrosine fluorescence quenching titration of apoenzyme. It counts as binding. The arrangement: gene dat; full length, 286 a.a; (His)6-tagged for Kd, tag removed for crystals.
Assay [6] has the same target. Kind of assay: half-reaction (deamination) kinetics, absorbance at […] nm; kmax/KD^app. The class given is biochemical. The arrangement: gene dat; (His)6-tagged DtolTA.
For assay [7], the target named is TA from Haliscomenobacter hydrossis (Haliscomenobacter hydrossis). Kind of assay: SEC; gel filtration of the purified enzyme; column and buffer not given.

For the compound `C[C@@H](N)C(=O)O` [D-alanine], the “half-reaction kinetics of variant apoenzyme in the presence of PLP; kmax/KD^app” value in assay [1] is 2.4 ± 0.7 M⁻¹ s⁻¹. Moreover, the “half-reaction (deamination) kinetics, absorbance at 411 nm; kmax/KD^app at pH 8.” value in assay [2] is 37 ± 1 M^−1s^−1. The “half-reaction (deamination) kinetics, absorbance at 411 nm; kmax/KD^app” value in assay [3] was determined as 29 ± 1 M⁻¹ s⁻¹.
For orientation: Kd means the constant that tells how readily two partners part at equilibrium. Low values mean a tighter complex, high ones a looser complex. Take `Cc1ncc(COP(=O)(O)O)c(C=O)c1O` [pyridoxal-5′-phosphate]: the values for the Kd in assay [4] and in assay [5] were 43 ± 2 µM and 30 ± 4 µM, respectively.
Regarding `C[C@@H](N)c1ccccc1` [(R)-1-phenylethylamine], the “half-reaction (deamination) kinetics, absorbance at 411 nm; kmax/KD^app” value in assay [6] is 0.015 ± 0.005 M⁻¹ s⁻¹.
With `N[C@H](CCC(=O)O)C(=O)O` [D-glutamate], the “half-reaction (deamination) kinetics, absorbance at 411 nm; kmax/KD^app” value in assay [6] stood at 0.020 ± 0.001 M⁻¹ s⁻¹.
As a reminder, the stoichiometry N is the number of molecules, sites or subunits per partner or assembly. “TA from Haliscomenobacter hydrossis (enzyme)” displayed a stoichiometry N in assay [7] of 2.
